Source: publication PMC4648258 (ACS infectious diseases, 2015)
Converted amounts (≈) assume the structure as drawn.

Experiments:
M. smegmatis = experiment: broth microdilution, A570 readout, non-tuberculosis mycobacteria; format: cell-based
E. cloacae = experiment: MIC, Gram-negative panel; format: cell-based
P. mirabilis = experiment: MIC, Gram-negative panel; format: cell-based
E. faecalis = experiment: MIC, Gram-positive panel; format: cell-based
M. bovis BCG = format: cell-based
E. coli = experiment: MIC, Gram-negative panel; format: cell-based
M. marinum = experiment: broth microdilution, A570 readout, non-tuberculosis mycobacteria; format: cell-based
[1] = tested on: VRE (Vancomycin-resistant E. faecium); experiment: MIC, Gram-positive panel; format: cell-based
solubility = format: physicochemical; conditions: current study
M. tuberculosis [2] = experiment: LORA MBC99, hypoxic; format: cell-based, Mycobacterium tuberculosis; conditions: hypoxic conditions (LORA)
[3] = previous study ref 18; cited from earlier work
B. anthracis = format: cell-based
[4] = tested on: Staphylococcus aureus strains (FDA209P, ATCC6538P, KB199); conditions: three Staphylococcus aureus strains (FDA209P, ATCC6538P, KB199); cited from earlier work
MtThyX = MtThyX (Mycobacterium tuberculosis, UniProt P9WG57); experiment: cell-free ThyA and ThyX enzyme inhibition assay; format: biochemical, M. tuberculosis
A. baumannii = experiment: MIC, Gram-negative panel; format: cell-based
S. pneumoniae = experiment: MIC, Gram-positive panel; format: cell-based
M. abscessus = experiment: broth microdilution, A570 readout, non-tuberculosis mycobacteria; format: cell-based
[5] = tested on: Streptococcus faecium IFO3181; conditions: cited from earlier work
M. avium = experiment: broth microdilution, A570 readout, non-tuberculosis mycobacteria; format: cell-based
M. kansasii = experiment: as above; format: cell-based
M. chelonae = experiment: as above; format: cell-based
K. pneumoniae = experiment: MIC, Gram-negative panel; format: cell-based
[6] = biological target: M. tuberculosis ThyA (MtThyA) (Mycobacterium tuberculosis, UniProt P9WFR9); experiment: cell-free ThyA and ThyX enzyme inhibition assay; format: biochemical
P. aeruginosa = experiment: MIC, Gram-negative panel; format: cell-based
S. pyogenes = experiment: MIC, Gram-positive panel; format: cell-based
[7] = liver microsome stability; format: in vitro ADME; conditions: 1 μM, 30 min, 0.5 mg/mL mouse liver microsomes
Caco-2 = Caco-2 bidirectional permeability; format: in vitro ADME; conditions: Caco-2, 5 μM
B. thuringiensis = experiment: MIC, Gram-positive panel; format: cell-based
B. cereus 14579 = experiment: MIC, Gram-positive panel; format: cell-based
B. cereus 10987 = experiment: MIC, Gram-positive panel; format: cell-based
[8] = liver microsome stability; format: in vitro ADME; conditions: 1 μM, 30 min, 0.5 mg/mL human liver microsomes
M. tuberculosis [9] = format: cell-based
[10] = biological target: thymidylate synthase (E. faecium); conditions: competitive with coenzyme 5,10-methylenetetrahydrofolate; cited from earlier work
E. faecium = experiment: MIC, Gram-positive panel; format: cell-based
human ThyA (HsThyA) = human ThyA (HsThyA) (Homo sapiens, UniProt P04818); experiment: cell-free ThyA and ThyX enzyme inhibition assay; format: biochemical; conditions: purified HsThyA, inhibitor 13 μM, compared to positive control 1843U89
Micrococcus luteus = conditions: cited from earlier work
[11] = in vivo tolerance assessment, oral gavage; set-up: species or system female BALB/c mice; conditions: 100 mg/kg daily by oral gavage for 5 days, uninfected mice
[12] = tested on: nonreplicating M. tuberculosis H37Rv; format: cell-based, Mycobacterium tuberculosis
B. subtilis = experiment: MIC, Gram-positive panel; format: cell-based
[13] = 100 mg/kg intraperitoneally; deposited solid residues; cited from earlier work
M. tuberculosis H37Rv = experiment: microplate Alamar Blue assay; format: cell-based; conditions: Mycobacterium tuberculosis

M. tuberculosis ThyA (MtThyA), sequence (P9WFR9 whole entry): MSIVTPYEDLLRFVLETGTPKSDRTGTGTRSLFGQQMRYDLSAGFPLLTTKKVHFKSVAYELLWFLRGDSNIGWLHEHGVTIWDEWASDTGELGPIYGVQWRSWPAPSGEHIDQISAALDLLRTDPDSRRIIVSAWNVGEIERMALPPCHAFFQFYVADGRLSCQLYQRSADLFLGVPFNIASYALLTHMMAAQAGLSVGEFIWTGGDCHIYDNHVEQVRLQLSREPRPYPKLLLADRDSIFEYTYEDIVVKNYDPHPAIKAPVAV
human ThyA (HsThyA), sequence (P04818 whole entry): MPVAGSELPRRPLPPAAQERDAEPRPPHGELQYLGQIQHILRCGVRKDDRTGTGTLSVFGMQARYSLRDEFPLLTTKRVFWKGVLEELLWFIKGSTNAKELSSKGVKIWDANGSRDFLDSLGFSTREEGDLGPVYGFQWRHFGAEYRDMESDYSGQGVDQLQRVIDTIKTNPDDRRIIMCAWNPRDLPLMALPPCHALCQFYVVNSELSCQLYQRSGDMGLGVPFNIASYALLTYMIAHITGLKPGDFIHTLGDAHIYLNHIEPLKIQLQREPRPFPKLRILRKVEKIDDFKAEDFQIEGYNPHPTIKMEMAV
MtThyX, sequence (P9WG57 whole entry): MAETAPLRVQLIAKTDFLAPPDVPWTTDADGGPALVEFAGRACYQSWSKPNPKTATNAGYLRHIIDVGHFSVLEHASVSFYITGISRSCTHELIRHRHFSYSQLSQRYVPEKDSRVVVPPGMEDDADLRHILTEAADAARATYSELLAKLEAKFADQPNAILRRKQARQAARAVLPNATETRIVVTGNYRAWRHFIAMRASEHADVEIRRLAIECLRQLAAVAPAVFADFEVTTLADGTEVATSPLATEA

CCCc1c2c([nH]c(=O)c1C)C(=O)c1[nH]c(=O)c(C)c(CCC)c1C2=O [Compound 3, diazaquinomycin A]
MIC (M. smegmatis): 4.56 µg/mL (≈ 12.9 µM) | MIC (E. cloacae): 64 µg/mL (≈ 181 µM) | MIC (P. mirabilis): 64 µg/mL (≈ 181 µM) | MIC (E. faecalis): 8 µg/mL (≈ 22.6 µM) | MIC (M. bovis BCG): 0.12 µg/mL (≈ 0.339 µM) | MIC (E. coli): 128 µg/mL (≈ 361 µM) | MIC (M. marinum): >7.5 µg/mL | MIC [1]: 32 µg/mL (≈ 90.3 µM) | maximum room temperature concentration in DMSO (solubility): 600 µg/mL | MBC99 (M. tuberculosis [2]): did not exhibit a significant MBC99 | maximum room temperature concentration in water [3]: 0.15 µg/mL | MIC (B. anthracis): 6.25 µg/mL (≈ 17.6 µM) | MIC [4]: 6.25 µg/mL (≈ 17.6 µM) | inhibition of enzyme activity (MtThyX): did not significantly inhibit | MIC (A. baumannii): 128 µg/mL (≈ 361 µM) | MIC (S. pneumoniae): >10 µg/mL | MIC (M. abscessus): >7.5 µg/mL | MIC [5]: 6.25 µg/mL (≈ 17.6 µM) | MIC (M. avium): 3.85 µg/mL (≈ 10.9 µM) | MIC (M. kansasii): >7.5 µg/mL | MIC (M. chelonae): >7.5 µg/mL | MIC (K. pneumoniae): 128 µg/mL (≈ 361 µM) | inhibition of enzyme activity [6]: did not significantly inhibit | MIC (P. aeruginosa): 128 µg/mL (≈ 361 µM) | MIC (S. pyogenes): >25 µg/mL | parent compound remaining [7]: 98% | efflux ratio (Caco-2): 0.2 | permeability (from apical to basolateral) (Caco-2): 4.4 ×10⁻⁶ cm/s | permeability (from basolateral to apical) (Caco-2): 0.9 ×10⁻⁶ cm/s | recovery (from apical to basolateral) (Caco-2): 82% | recovery (from basolateral to apical) (Caco-2): 98% | MIC (B. thuringiensis): 25 µg/mL (≈ 70.5 µM) | MIC (B. cereus 14579): 25 µg/mL (≈ 70.5 µM) | MIC (B. cereus 10987): 12.5 µg/mL (≈ 35.3 µM) | parent compound remaining [8]: 96% | reversal of antibiotic properties by thymidine (M. tuberculosis [9]): no reversal | Ki [10]: 36 µM | MIC (E. faecium): 8 µg/mL (≈ 22.6 µM) | inhibition of enzyme activity (human ThyA (HsThyA)): did not significantly inhibit | MIC (Micrococcus luteus): 1.13 µg/mL (≈ 3.19 µM) | tolerance in vivo [11]: well tolerated | MIC [12]: 0.72 µg/mL (≈ 2.03 µM) | MIC (B. subtilis): 100 µg/mL (≈ 282 µM) | toxicity in vivo [13]: acute toxicity

O=[N+]([O-])c1cn2c(n1)OC[C@@H](OCc1ccc(OC(F)(F)F)cc1)C2 [PA824]
MIC (M. tuberculosis H37Rv): 0.01 µg/mL (≈ 0.0278 µM)
